# Where two headings read alike, the source gives them in different places.
# How the values were obtained:
# Assay type in all cases: in vivo
# Meloidogyne incognita = experiment: M. incognita miniaturized greenhouse assay on cucumber seedlings; settings: text reference to table 1D, 8 ppm and 1 ppm
# Procedure: The test compound is dissolved in an acetone solution and added to water. A sprouted cucumber seedling is placed into a vial with dry sand and the water-chemical solution is added immediately. Twenty four hours later Meloidogyne incognita eggs are added to the vials and 10 to 12 days later the roots are evaluated for nematode galling.
# Cucumber seeds are sprouted for 3 days in moist paper towels. Acceptable sprouts should be 3 to 4 cm long with several lateral roots just emerging. Stock solutions of chemistry are prepared in a mixture of acetone and Triton X100 (412 mg in 500 mL) to a final concentration of 5 mg/mL. The chemical stock solution is then added to 10 mL deionized water plus 0.015% Triton X100 and mixed thoroughly. This is enough to test each condition in triplicate. Ten mL dry sand is added to each vial. At this time the solubility of the chemistry is visually determined and recorded as either ppt (large precipitates) or cloudy (fine precipitates). Seedlings are planted by tilting the vial and laying the seedling in the correct orientation so that the cotyledons are just above the sand and then tilting back to cover the radicles with sand. 3.3 ml water/chemical mix is added to each vial and the vials placed in racks under fluorescent light banks. The vials are inoculated two days after planting by adding 500 vermiform M. incognita eggs to each vial in 50 uL of deionized or spring water. The vials are then kept under the fluorescent lamps at ambient room temperature and watered as needed with 1mL deionized water, usually twice during duration of test. Harvest of the cucumber plants is done 10 to 12 days after inoculation by washing sand off the roots. A root gall rating and visual phytotoxicity rating is assigned using the following scales: Gall rating scale (Gall: % root mass galled): 0=0-5%; 1=6-20%; 2=21-50%; and 3=51-100%. The average of the triplicate gall rating is then calculated: green=0.00-0.33 (no galls); yellow=0.67-1.33 (mild galling); orange=1.67-2.33 (moderate galling); red=2.67-3.00 (severe galling). Visual phytotoxicity scale is also assigned (Vis. tox; visual reduction in root mass compared to the control): rs1=mild stunting; rs2=moderate stunting; rs3=severe stunting.
# [1] = tested on: Heterodera glycines (SCN); experiment: Seed treatment test of soybean cyst nematode on soybean; settings: Heterodera glycines, 672 h, read-out: percent cyst reduction relative to control blank treatment
# Procedure: For a given concentration the chemical is dissolved in 500 ul of acetone and one gram of cucumber seed (RKN test) or soybean seed (SCN test) is added (e.g., 20 mg active ingredient in 500 ul acetone plus 1 gram of seed). The seed solutions are agitated until all seeds were thoroughly covered with the chemical solution. The acetone is then allowed to evaporate by air drying the seeds. The seeds are planted in 2-inch pots containing sandy soil and then the pots are inoculated with 1000 Meloidogyne incognita (RKN) or 1000 Heterodera glycines (SCN) eggs per pot three days after planting. Plants are rated for galling 14 days after egg inoculation for RKN or 28 days after egg inoculation for SCN.
# root knot nematode = experiment: Pre-plant incorporated (PPI) greenhouse test of root knot nematode on cucumber plants; settings: 168 h, seven day pre-plant incorporated
# From the text: The PPI test examines the effect of pre-incorporation of compounds in soil and longer aging to simulate in furrow methods of nematicide application in the field. The PPI test exposes compounds to a higher volume of soil and drying which can result in more severe soil binding. Compounds are also aged for longer periods which can lead to more extensive biotic and abiotic degradation further limiting activity.
# The chemically treated soil (sandy soil mix) for all treatment days (e.g., 7 days, 14 days, 21 days) treatments is potted into their appropriate pots. On the same day the 7 day treatment pots are seeded. One week later eggs are applied and 14 days after egg application the test is harvested. The 14 day treatments are planted 7 days after the first planting. The 14 day planting and 7 day inoculation happen on the same day. One week later the 14 day treatments are inoculated with eggs. These are harvested 14 days after the inoculation. The 21 day treatments are planted 14 days after the first planting. The 14 day inoculation and 21 day planting are done on the same day. One week later the 21 day plants are inoculated with eggs. The 7 day treatment is harvested the same day as the 21 day inoculation. Fourteen days after inoculation the 21 day plants are harvested.
# For each compound a stock is prepared using 4 mg material in 4 ml of acetone. The soil is mixed by placing 80 ml of field soil and 320 ml of sand in a plastic bag and mixing well. The formulation for treatment is done by adding 2.13 ml (8 kg/ha rate), 1.06 ml (4 kg/ha rate) or 0.53 ml (2 kg/ha rate) to a vial and raising it with 10 ml in 0.05% X100. Soil is then treated by adding the entire 10 ml to the 400 ml of mix in the bag. The treated soil is immediately mixed well in the sealed bag to distribute the compound evenly. Approximately 95 ml is used to fill each 2-inch square pot up to the top with some soil compression and flattening. For each compound and for the control treatments 4 pots are filled. All pots are watered until moist but with no run-out through the bottom.
# The PPI test simulates 8, 4 and 2 kg/ha rates incorporated 15 cm deep in the field and is equivalent to the 2, 1 and 0.5 kg/ha drench application rates in the standard 2-inch pot cucumber greenhouse assay.
# C. elegans = experiment: Three day C. elegans well assay; settings: for EC50: Caenorhabditis elegans
# Procedure: Various compounds were tested for nematicidal activity against C. elegans using contact assays in wells. The assays were performed as described below. The test compounds were solubilized in DMSO at 10 mg/ml to create 100× stock solutions. A dilution series was created by diluting the stock solution with DMSO. For each well assay 4 ul of the appropriate dilution is added to a well of a test plate. A 400 ul aliquot of bacterial stock (in M9 buffer with ampicillin and nystatin) are added to each well of the test plate. Worms are added and the test plate placed on a rotary shaker and held at 20° C. Worms are examined and scored at 4 hrs, 24 hrs, 48 hrs and 72 hours. L1 worms and L4 worms were used in the assay. L1 worms are prepared by plating eggs on a plate without a bacterial feeding layer. The eggs hatch and arrest at the L1 stage. This L1 stage population is then used to create a stock for the experiments. To create an L4 stage stock a small number of worms are taken from an overgrown and starved plate of worms and seeded on a plate with a bacterial feeder layer. A 25 ul aliquot of worms is added to each well in the assay.
# [2] = 24 h, L1 larvae, one day of exposure, read-out: EC50 L1 1D
# [3] = 48 h, L1 larvae, two days of exposure, read-out: EC50 L1 2D
# [4] = 72 h, L1 larvae, three days of exposure, read-out: EC50 L1 3D
# [5] = 72 h, L4 larvae, three days, effects on the second generation larvae, read-out: EC50 L4 3D (F1)
# [6] = 48 h, L4 larvae, two days of exposure, read-out: EC50 L4 2D
# [7] = L4 larvae, two days of exposure
# [8] = 24 h, L4 larvae, one day of exposure, read-out: EC50 L4 1D
smiles,measurement,setting,value
c1ccc(-c2cc(-c3ccco3)n[nH]2)cc1 [3-(furan-2-yl)-5-phenyl-1H-pyrazole],nematicidal activity,Meloidogyne incognita,at 8 ppm but not 1 ppm
"CS/C(C)=N\OC(=O)N(C)SN(C)C(=O)O/N=C(\C)SC [Thiodicarb, reference compound]",pest or weed control at 0.375 mg/g,[1],6%
same,pest or weed control at 1.5 mg/g,[1],-23%
FC(F)(F)c1ccc(-c2noc(-c3cccs3)n2)cc1 [compound 5213],pest or weed control at 4000 g/ha,"root knot nematode; 4 kg/ha, read-out: percent control (galling reduction), 4 kg/ha rate",85%
same,pest or weed control at 8000 g/ha,"root knot nematode; 8 ka/ha, read-out: percent control (galling reduction), 8 ka/ha rate",98%
Clc1cc(-c2noc(-c3cccs3)n2)ccc1Br [compound 5820],EC50,C. elegans; [2],0.4 µg/mL
same,EC50,C. elegans; [3],0.4 µg/mL
same,EC50,C. elegans; [4],0.4 µg/mL
same,EC50,C. elegans; [5],6.3 µg/mL
same,EC50 L4 1D,"C. elegans; L4 larvae, one day of exposure",no
Clc1cc(-c2noc(-c3ccco3)n2)ccc1Br [compound 5821],EC50,C. elegans; [2],0.4 µg/mL
same,EC50,C. elegans; [3],0.4 µg/mL
same,EC50,C. elegans; [4],0.4 µg/mL
same,EC50,C. elegans; [5],0.4 µg/mL
same,EC50 L4 1D,"C. elegans; L4 larvae, one day of exposure",no
Cc1cc(Cl)ccc1-c1noc(-c2cccs2)n1 [compound 5822],EC50,C. elegans; [2],1.6 µg/mL
same,EC50,C. elegans; [3],0.4 µg/mL
same,EC50,C. elegans; [6],1.6 µg/mL
same,EC50,C. elegans; [4],0.4 µg/mL
same,EC50,C. elegans; [5],1.6 µg/mL
same,EC50 L4 1D,"C. elegans; L4 larvae, one day of exposure",no
Cc1cc(Br)ccc1-c1noc(-c2cccs2)n1 [compound 5824],EC50,C. elegans; [2],1.6 µg/mL
same,EC50,C. elegans; [3],0.4 µg/mL
same,EC50,C. elegans; [4],0.4 µg/mL
same,EC50,C. elegans; [5],1.6 µg/mL
same,EC50 L4 1D,"C. elegans; L4 larvae, one day of exposure",no
same,EC50 L4 2D,C. elegans; [7],no
Clc1ccccc1-c1cnc(-c2cccs2)o1 [compound 5826],EC50,C. elegans; [2],6.3 µg/mL
same,EC50,C. elegans; [8],6.3 µg/mL
same,EC50,C. elegans; [3],1.6 µg/mL
same,EC50,C. elegans; [6],6.3 µg/mL
same,EC50,C. elegans; [4],1.6 µg/mL
same,EC50,C. elegans; [5],6.3 µg/mL
Brc1ccccc1-c1cnc(-c2cccs2)o1 [compound 5827],EC50,C. elegans; [2],6.3 µg/mL
same,EC50,C. elegans; [8],25 µg/mL
same,EC50,C. elegans; [3],1.6 µg/mL
same,EC50,C. elegans; [6],6.3 µg/mL
same,EC50,C. elegans; [4],1.6 µg/mL
same,EC50,C. elegans; [5],6.3 µg/mL
Clc1ccccc1-c1cnc(-c2ccco2)o1 [compound 5828],EC50,C. elegans; [2],1.6 µg/mL
same,EC50,C. elegans; [3],1.6 µg/mL
same,EC50,C. elegans; [4],1.6 µg/mL
same,EC50 L4 1D,"C. elegans; L4 larvae, one day of exposure",no
same,EC50 L4 3D,"C. elegans; L4 larvae, three days of exposure",no
same,EC50 L4 2D,C. elegans; [7],no
Cc1cc(F)ccc1-c1noc(-c2cccs2)n1 [compound 5845],EC50,C. elegans; [3],1.6 µg/mL
same,EC50,C. elegans; [6],25 µg/mL
same,EC50,C. elegans; [4],0.4 µg/mL
same,EC50,C. elegans; [5],25 µg/mL
same,EC50 L1 1D,"C. elegans; L1 larvae, one day of exposure",no
same,EC50 L4 1D,"C. elegans; L4 larvae, one day of exposure",no

# — patent publication US20170367338A1, “COMPOSITIONS AND METHODS FOR IMPROVING AGRONOMIC CHARACTERISTICS OF PLANTS” (MONSANTO TECHNOLOGY LLC, priority 2014, published 2017)
